{"source": "the supplement of paper PMC10307832", "assay_in_all_cases": "relative viability (nuclei count vs DMSO), 5 days (fraction); higher = more cells survive", "key": {"NCI-H727": {"tested_on": "NCI-H727", "outline": "(§1)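 Cells from lung cancer lines were seeded into 1536-well plates and, one day later, dosed by pin tool. Treatments were either a single drug or a fixed dose of an anchor drug with five library-drug doses (not always all listed) in √10 steps. After 5 days, nuclei were stained in a one-step fixation (final 0.05% Triton X-100, 1% formaldehyde, 1 ug/ml Hoechst) and counted on 4× images, and relative viability is the treated-to-vehicle nuclei ratio, as the median of duplicate plates.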"}, "SK-LU-1": {"tested_on": "SK-LU-1", "outline": "as §1"}, "NCI-H1975": {"tested_on": "NCI-H1975", "outline": "as §1"}, "NCI-H596": {"tested_on": "NCI-H596", "outline": "as §1"}, "EKVX": {"tested_on": "EKVX", "outline": "as §1"}, "NCI-H460": {"tested_on": "NCI-H460", "outline": "as §1"}, "NCI-H522": {"tested_on": "NCI-H522", "outline": "as §1"}, "NCI-H1666": {"tested_on": "NCI-H1666", "outline": "as §1"}, "LCLC-97TM1": {"tested_on": "LCLC-97TM1", "outline": "as §1"}, "NCI-H1437": {"tested_on": "NCI-H1437", "outline": "as §1"}, "PC-3 [JPC-3]": {"tested_on": "PC-3 [JPC-3]", "outline": "as §1"}}, "data": [{"smiles": "Cc1csc(=NC2CCCCC2)n1/N=C/c1ccc(O)c(O)c1O", "note": "[MIM1] + Cc1cc(Nc2cc(N3CCN(C)CC3)nc(Sc3ccc(NC(=O)C4CC4)cc3)n2)n[nH]1 [Tozasertib] (partner 0.1 µM)", "values": [{"measurement": "relative viability", "setting": "NCI-H727; first compound 0.2 µM", "result": 0.513}, {"measurement": "relative viability", "setting": "NCI-H727; first compound 0.6325 µM", "result": 0.536}, {"measurement": "relative viability", "setting": "NCI-H727; first compound 2 µM", "result": 0.592}, {"measurement": "relative viability", "setting": "NCI-H727; first compound 6.325 µM", "result": 0.574}, {"measurement": "relative viability", "setting": "NCI-H727; first compound 20 µM", "result": 0.506}, {"measurement": "relative viability", "setting": "SK-LU-1; first compound 0.2 µM", "result": 0.329}, {"measurement": "relative viability", "setting": "SK-LU-1; first compound 0.6325 µM", "result": 0.374}, {"measurement": "relative viability", "setting": "SK-LU-1; first compound 2 µM", "result": 0.393}, {"measurement": "relative viability", "setting": "SK-LU-1; first compound 6.325 µM", "result": 0.273}, {"measurement": "relative viability", "setting": "SK-LU-1; first compound 20 µM", "result": 0.283}, {"measurement": "relative viability", "setting": "NCI-H1975; first compound 0.2 µM", "result": 0.643}, {"measurement": "relative viability", "setting": "NCI-H1975; first compound 0.6325 µM", "result": 0.807}, {"measurement": "relative viability", "setting": "NCI-H1975; first compound 2 µM", "result": 0.699}, {"measurement": "relative viability", "setting": "NCI-H1975; first compound 6.325 µM", "result": 0.338}, {"measurement": "relative viability", "setting": "NCI-H1975; first compound 20 µM", "result": 0.254}, {"measurement": "relative viability", "setting": "NCI-H596; first compound 0.2 µM", "result": 0.929}, {"measurement": "relative viability", "setting": "NCI-H596; first compound 0.6325 µM", "result": 0.931}, {"measurement": "relative viability", "setting": "NCI-H596; first compound 2 µM", "result": 0.817}, {"measurement": "relative viability", "setting": "NCI-H596; first compound 6.325 µM", "result": 0.872}, {"measurement": "relative viability", "setting": "NCI-H596; first compound 20 µM", "result": 0.782}, {"measurement": "relative viability", "setting": "EKVX; first compound 0.2 µM", "result": 0.474}, {"measurement": "relative viability", "setting": "EKVX; first compound 0.6325 µM", "result": 0.357}, {"measurement": "relative viability", "setting": "EKVX; first compound 2 µM", "result": 0.355}, {"measurement": "relative viability", "setting": "EKVX; first compound 6.325 µM", "result": 0.28}, {"measurement": "relative viability", "setting": "EKVX; first compound 20 µM", "result": 0.337}, {"measurement": "relative viability", "setting": "NCI-H460; first compound 0.2 µM", "result": 0.447}, {"measurement": "relative viability", "setting": "NCI-H460; first compound 0.6325 µM", "result": 0.499}, {"measurement": "relative viability", "setting": "NCI-H460; first compound 2 µM", "result": 0.149}, {"measurement": "relative viability", "setting": "NCI-H460; first compound 20 µM", "result": 0.0359}, {"measurement": "relative viability", "setting": "NCI-H522; first compound 0.2 µM", "result": 0.622}, {"measurement": "relative viability", "setting": "NCI-H522; first compound 0.6325 µM", "result": 0.572}, {"measurement": "relative viability", "setting": "NCI-H522; first compound 2 µM", "result": 0.484}, {"measurement": "relative viability", "setting": "NCI-H522; first compound 6.325 µM", "result": 0.608}, {"measurement": "relative viability", "setting": "NCI-H522; first compound 20 µM", "result": 0.452}, {"measurement": "relative viability", "setting": "NCI-H1666; first compound 0.2 µM", "result": 0.618}, {"measurement": "relative viability", "setting": "NCI-H1666; first compound 0.6325 µM", "result": 0.625}, {"measurement": "relative viability", "setting": "NCI-H1666; first compound 2 µM", "result": 0.575}, {"measurement": "relative viability", "setting": "NCI-H1666; first compound 6.325 µM", "result": 0.47}, {"measurement": "relative viability", "setting": "NCI-H1666; first compound 20 µM", "result": 0.446}, {"measurement": "relative viability", "setting": "LCLC-97TM1; first compound 0.2 µM", "result": 0.285}, {"measurement": "relative viability", "setting": "LCLC-97TM1; first compound 0.6325 µM", "result": 0.237}, {"measurement": "relative viability", "setting": "LCLC-97TM1; first compound 2 µM", "result": 0.292}, {"measurement": "relative viability", "setting": "LCLC-97TM1; first compound 6.325 µM", "result": 0.192}, {"measurement": "relative viability", "setting": "LCLC-97TM1; first compound 20 µM", "result": 0.109}, {"measurement": "relative viability", "setting": "NCI-H1437; first compound 0.2 µM", "result": 0.395}, {"measurement": "relative viability", "setting": "NCI-H1437; first compound 0.6325 µM", "result": 0.434}, {"measurement": "relative viability", "setting": "NCI-H1437; first compound 2 µM", "result": 0.437}, {"measurement": "relative viability", "setting": "NCI-H1437; first compound 6.325 µM", "result": 0.346}, {"measurement": "relative viability", "setting": "NCI-H1437; first compound 20 µM", "result": 0.197}, {"measurement": "relative viability", "setting": "PC-3 [JPC-3]; first compound 0.2 µM", "result": 0.912}, {"measurement": "relative viability", "setting": "PC-3 [JPC-3]; first compound 0.6325 µM", "result": 0.86}, {"measurement": "relative viability", "setting": "PC-3 [JPC-3]; first compound 2 µM", "result": 0.849}, {"measurement": "relative viability", "setting": "PC-3 [JPC-3]; first compound 6.325 µM", "result": 0.694}]}]}
